Reference: patent publication US20070149570A1, “Piperidine derivative and use thereof” (priority 2005, published 2007)
pIC50: −log10 of the molar value.

Target: T1, substance P receptors (Homo sapiens, UniProt P25103)
T1 construct: The receptor was prepared from human lymphoblast cells (IM-9); endogenous in cells; host or cells: IM-9 human lymphoblast cells (membrane preparation)
Experiment: Radioligand receptor binding inhibitory activity using receptor from human lymphoblast cells (IM-9), 125I-BHSP
Conditions: radioligand 125I-BHSP, 25° C., 30 minutes, read-out: IC50 (concentration necessary to cause 50% inhibition)
Procedure: Radioligand receptor binding inhibitory activity (Binding inhibitory activity using receptor from human lymphoblast cells (IM-9))
The method of M. A. Cascieri et al., [Molecular Pharmacology, vol. 42, p. […] The receptor was prepared from human lymphoblast cells (IM-9). IM-9 cells (2×10^5 cells/mL) were incubated for 3 days (one liter), which was then subjected to centrifugation for 5 minutes at 500×G to obtain cell pellets. […] The residue was washed twice with 30 mL of the above-mentioned buffer, which was then preserved frozen (−80° C.) as a specimen of the receptor.
The specimen was suspended in a reaction buffer (50 mM Tri-HCl buffer (pH 7.4), 0.02% bovine serum albumin, 1 mM phenylmethylsulfonyl fluoride, 2 μg/mL chymostatin, 40 μg/mL bacitracin and 3 mM manganese chloride) to have protein in the concentration of 0.5 mg/mL of protein and 100 μL portion of the suspension was used in the reaction. […] The amount of nonspecific binding was determined by adding substance P at a final concentration of 2×10^−6 M.
After the reaction, using a cell harvester (290 PHD, Cambridge Technology, Inc., U.S.A.), filtration was carried out through a glass filter (GF/B, Whatman, U.S.A.), which was immersed in 0.1% polyethyleneimine for 24 hours and dried. After washing three times with 250 μL of 50 mM Tris-HCl buffer (pH 7.4) containing 0.02% bovine serum albumin, the radioactivity remaining on the filter was determined with a gamma counter.

T1 sequence (P25103 whole entry): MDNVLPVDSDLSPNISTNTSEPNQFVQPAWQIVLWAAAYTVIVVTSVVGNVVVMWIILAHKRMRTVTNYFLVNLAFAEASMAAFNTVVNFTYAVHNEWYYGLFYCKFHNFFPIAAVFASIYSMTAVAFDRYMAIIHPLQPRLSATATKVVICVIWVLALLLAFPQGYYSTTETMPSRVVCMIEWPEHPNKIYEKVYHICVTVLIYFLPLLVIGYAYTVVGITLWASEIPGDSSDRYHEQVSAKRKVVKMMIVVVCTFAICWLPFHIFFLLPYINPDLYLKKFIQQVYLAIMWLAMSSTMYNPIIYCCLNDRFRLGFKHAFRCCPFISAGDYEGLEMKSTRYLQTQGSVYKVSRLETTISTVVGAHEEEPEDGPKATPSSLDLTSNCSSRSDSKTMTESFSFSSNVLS

Compound	pIC50
COc1ccc(-c2ccc(C#N)cc2)cc1CN[C@H]1CCN(C(=O)CNC(C)=O)C[C@H]1c1ccccc1 [Example 10, N-[2-((3R,4S)-4-{[(4′-cyano-4-methoxybiphenyl-3-yl)methyl]amino}-3-phenylpiperidin-1-yl)-2-oxoethyl]acetamide]	10.72
COc1ccc(-c2ccc(Cl)cc2)cc1CN[C@H]1CCN(C(=O)CNC(C)=O)C[C@H]1c1ccccc1 [Example 15, N-[2-((3R,4S)-4-{[(4′-chloro-4-methoxybiphenyl-3-yl)methyl]amino}-3-phenylpiperidin-1-yl)-2-oxoethyl]acetamide]	10.70
COc1ccc(-c2ccc(F)cc2)cc1CN[C@H]1CCN(C(=O)CNC(C)=O)C[C@H]1c1ccccc1 [Example 16, N-[2-((3R,4S)-4-{[(4′-fluoro-4-methoxybiphenyl-3-yl)methyl]amino}-3-phenylpiperidin-1-yl)-2-oxoethyl]acetamide]	10.51
COc1ccc(-c2ccc(C)cc2)cc1CN[C@H]1CCN(C(=O)CNC(C)=O)C[C@H]1c1ccccc1 [Example 17, N-[2-((3R,4S)-4-{[(4-methoxy-4′-methylbiphenyl-3-yl)methyl]amino}-3-phenylpiperidin-1-yl)-2-oxoethyl]acetamide]	10.66
COc1ccc(-c2ccc(C(F)(F)F)cc2)cc1CN[C@H]1CCN(C(=O)CNC(C)=O)C[C@H]1c1ccccc1 [Example 18, N-{2-[(3R,4S)-4-({[4-methoxy-4′-(trifluoromethyl)biphenyl-3-yl]methyl}amino)-3-phenylpiperidin-1-yl]-2-oxoethyl}acetamide]	10.44
COc1ccc(-c2ccc(Br)cc2)cc1CN[C@H]1CCN(C(=O)CNC(C)=O)C[C@H]1c1ccccc1 [Example 22, N-[2-((3R,4S)-4-{[(4′-bromo-4-methoxybiphenyl-3-yl)methyl]amino}-3-phenylpiperidin-1-yl)-2-oxoethyl]acetamide]	10.74
C#Cc1ccc(-c2ccc(OC)c(CN[C@H]3CCN(C(=O)CNC(C)=O)C[C@H]3c3ccccc3)c2)cc1 [Example 23, N-[2-((3R,4S)-4-{[(4′-ethynyl-4-methoxybiphenyl-3-yl)methyl]amino}-3-phenylpiperidin-1-yl)-2-oxoethyl]acetamide]	10.82

More lines, now with the values ahead:

pIC50	Compound
10.80	COc1ccc(-c2ccc(C#N)cc2F)cc1CN[C@H]1CCN(C(=O)CNC(C)=O)C[C@H]1c1ccccc1 [Example 11, N-[2-((3R,4S)-4-{[(4′-cyano-2′-fluoro-4-methoxybiphenyl-3-yl)methyl]amino}-3-phenylpiperidin-1-yl)-2-oxoethyl]acetamide]
10.72	COc1ccc(-c2ccc(C#N)c(F)c2)cc1CN[C@H]1CCN(C(=O)CNC(C)=O)C[C@H]1c1ccccc1 [Example 21, N-[2-((3R,4S)-4-{[(4′-cyano-3′-fluoro-4-methoxybiphenyl-3-yl)methyl]amino}-3-phenylpiperidin-1-yl)-2-oxoethyl]acetamide]
10.74	COc1ccc(-c2ccc(C#N)cc2C)cc1CN[C@H]1CCN(C(=O)CNC(C)=O)C[C@H]1c1ccccc1 [Example 25, N-[2-((3R,4S)-4-{[(4′-cyano-4-methoxy-2′-methylbiphenyl-3-yl)methyl]amino}-3-phenylpiperidin-1-yl)-2-oxoethyl]acetamide]
10.82	COCC(=O)N1CC[C@H](NCc2cc(-c3ccc(C#N)cc3)ccc2OC)[C@H](c2ccccc2)C1 [Example 32, 4′-methoxy-3′-({[(3R,4S)-1-(methoxyacetyl)-3-phenylpiperidin-4-yl]amino}methyl)biphenyl-4-carbonitrile]
10.82	COCC(=O)N1CC[C@H](NCc2cc(-c3ccc(C#N)cc3F)ccc2OC)[C@H](c2ccccc2)C1 [Example 33, 2-fluoro-4′-methoxy-3′-({[(3R,4S)-1-(methoxyacetyl)-3-phenylpiperidin-4-yl]amino}methyl)biphenyl-4-carbonitrile]
